We go through one compound from US20260053942A1, “STING AGONIST IMMUNOSTIMULATORY ANTIBODY DRUG CONJUGATES” (ASTELLAS PHARAMA INC., priority 2024, published 2026).

Assay [1] has as its system NCI-H292 cells. In words: Immunogenic cell death: cell surface calreticulin (CALR) on live cells (flow cytometry), 48 hours. It counts as cell-based, human. On the procedure:
(§1) Immunogenic cell death elicited by the TROP2 ADC, iSAC, iADCs and exatecan were measured by cell surface translocate of calreticulin and release of HMGB1 in the cell culture supernatant. Briefly, TROP2 positive cell line NCI-H292 were seeded into a 96-well flat bottom plate 4 hours prior to the initialization of the assay. Test articles were formulated at a 2× starting concentration in cell culture medium, and samples were serial diluted (1:3) under sterile conditions and added onto the cells in duplicates. After incubation at 37° C. in a CO2 incubator for 48 hours, the cell supernatant was collected for measuring HMGB1 and the adherent cells were collected for calreticulin expression on the cell surface.
NCI-H292 cells were detached using Accutase (Innovative Cell Technologies) and viability was accessed using a 1:500 dilution of Zombie NIR viability dye. […] Surface calreticulin measures on the live cells were gathered using an Attune NXT Flow Cytometer (ThermoFisher Scientific) to obtain median fluorescence intensity values. All data were fitted with non-linear regression analysis, using log(agonist) vs. response, variable slope, 4 parameter fit equation using GraphPad Prism.
(In general: In flow cytometry, cells or beads pass a laser one at a time.)

The next assay has as its system NCI-H1703 (Trop2-). Briefly: Cell proliferation (cell killing) assay, Cell Titer-Glo, 120 hours. It counts as cell-based, human. On the procedure:
(§2) The cytotoxicity of the ADCs, iSACs and iADCs was measured in a cell proliferation assay. TROP2 positive NCI-H292, NCI-H441 cells and TROP2 negative NCI-H460 and NCI-H1703 cells were obtained from ATCC (American Type Culture Collection) and maintained in DMEM/F12 (1:1), high glucose (Corning) supplemented with 10% heat-inactivated fetal bovine serum (Thermo Scientific), 2 mM glutamax (Thermo Scientific), and 1× Penicillin/Streptomycin (Corning).
(§3) Cells were collected and counted by the Vi-CELL Cell Viability Analyzers (Beckman Coulter). A total of 7500 cells in a volume of 50 uL were seeded in each well of a 96-well flat bottom white Polystyrene plate. Test articles were diluted at 2× final concentration in the cell culture medium and 50 uL was added into each treatment well. Assay plates were cultured at 37° C. in a CO2 incubator for 120 hours. For cell viability measurement, 60 μL of Cell Titer-Glo® reagent (Promega Corp. Madison, WI) was added into each well, and plates were processed as per product instructions. Relative luminescence was measured on an ENVISION® plate reader (Perkin-Elmer; Waltham, MA). Relative luminescence readings were converted to % viability using untreated cells as controls. Data was fitted with non-linear regression analysis, using log(inhibitor) vs. response-variable slope, 4 parameter fit equation using GraphPad Prism (GraphPad v 5.00, Software; San Diego, CA).
Background: Cellular ATP, detected with luciferase, serves as a proxy for viable cell number.

Another assay relates to NCI-H441 (Trop2+). Described as above. Type of assay: cell-based, human. As for the experimental part:
as §2, §3

The test system of another assay is NCI-H292 (Trop2+). Described as above. It counts as cell-based, human. As for the experimental part: as §2, §3
The next assay deals with NCI-H460 (Trop2-). The description is as above. It counts as cell-based, human. On the procedure:
as §2, §3

A further assay concerns human PBMCs. Briefly: NCI-H292/PBMC co-culture: monocyte/immune cell count and activation (FACS). Particulars: TROP2 positive NCI-H292/PBMC co-culture. It counts as cell-based. As for the experimental part:
The ability of different TROP2 iADCs to induce cancer cell killing, immune activation, and cytokine release was evaluated in an in vitro co-culture assay with human cancer cells and human PBMCs.
Residual RBCs were removed using ACK lysis buffer (Gibco) for 10 minutes, followed by DPBS wash. Isolated PBMCs were counted, resuspended in freezing medium (Sigma) and stored in a freezing vessel at −80° C. for 24 hours before being transferred to vapor-phase liquid nitrogen for long-term storage.
For the co-culture assay, cancer cells were plated on transparent flat bottom polystyrene plates and allowed to attach overnight. The next day, serially diluted (1:4) test articles were formulated at 3× starting concentration in complete RPMI media and added onto each well. […]
On the day of sample collection, cell culture supernatants were collected and stored at −80° C. until cytokine release analyses were performed. […] Cells were then washed with FACS buffer again and read on Cytek flow cytometer. […]
The ability of different TROP2 iADCs to induce cancer cell killing, immune activation, and cytokine release was evaluated in an in vitro co-culture assay with TROP2 positive CaoV3 cells or NCI-H292 cells and human PBMCs. h1925-C06, an anti-TROP2 antibody, was conjugated to LP-C1 on the heavy chain Y180/F404 sites and to different STING agonist linker payloads at light chain K42 sites. […]

Assay [2] has as its system TROP2 positive NCI-H292, NCI-H441 cells and TROP2 negative NCI-H460 and NCI-H1703 cells. In words: Cell proliferation (cell killing) assay, cell line panel. Type of assay: cell-based, human. Particulars: all TROP2 positive and negative cell lines tested. On the procedure:
as §2, §3

The test system of assay [3] is NCI-H292 cells. Briefly: Immunogenic cell death: HMGB1 release in supernatant (sandwich ELISA), 48 hours. Type of assay: cell-based, human. As for the experimental part: as §1
HMGB1 released in the supernatant was assessed via sandwich ELISA using mouse anti-human HMGB1 clone 2F6 (Sigma-Aldrich) as the capture, polyclonal rabbit anti-human HMGB1 (Abcam) as secondary, and polyclonal goat anti-rabbit IgG HRP as the detection antibody. The HMGB1 concentrations in the cell culture medium were calculated based a standard curve built on commercially available recombinant human HMGB1 (R&D Systems).

In general, EC50 refers to the concentration giving half of the maximal effect. For `CC[C@@]1(O)C(=O)OCc2c1cc1n(c2=O)Cc2c-1nc1cc(F)c(C)c3c1c2[C@@H](N)CC3` [Exatecan, exatecan, reference compound], the EC50 stood at 0.19 nM in the assay on NCI-H292 cells [1] (Homo sapiens, NCI-H292 live cells, cell surface); 1.04 nM in the assay on NCI-H1703 (Trop2-) (Homo sapiens); 0.57 nM with NCI-H441 (Trop2+) (Homo sapiens); 0.88 nM in the assay with NCI-H292 (Trop2+) (Homo sapiens); 0.97 nM in the assay with NCI-H460 (Trop2-) (Homo sapiens); 2.08 nM with NCI-H292 cells [3] (Homo sapiens, supernatant, read-out: HMGB-1 Release EC50). Also, the “induction of CALR on live cells compared to untreated cells” value in the assay with NCI-H292 cells [1] (NCI-H292 cells) was around 2 fold. In the assay on NCI-H292 cells [1] (NCI-H292 live cells, cell surface), the “Calreticulin Span” value worked out at 783 MFI. Besides, the Span cell killing with NCI-H1703 (Trop2-) is 95%; in the assay with NCI-H441 (Trop2+) it was 89%; in the assay with NCI-H292 (Trop2+), 80%; in the assay on NCI-H460 (Trop2-), 83%. The “immune cell activation and cytokine release (in words)” value with human PBMCs is given as “did not induce activation of any immune populations”. Moreover, the “cell killing (in words)” value in assay [2] is reported as “good cell killing”. In the assay on NCI-H292 cells [3], the “release of HMGB1 into the cell culture supernatant” value is given as around 70 ng/mL. Further, the “HMGB-1 Release Span” value in the assay on NCI-H292 cells [3] (supernatant) amounted to 55 ng/mL.
